Three compounds from patent US6632823B1, “Substituted pyridine compounds useful as modulators of acetylcholine receptors” (Merck & Co., Inc., priority 1997, dated 2003) can be followed below.

As a reminder, the melting point is the temperature of the solid-liquid transition.

Where a name gives a salt, the structure may show the parent alone.

`CN1C2CCC1CC(SCc1ccccn1)C2` (stereo not drawn) (as salt: hydrochloride) came in with a melting point of 204 to 206 °C.
`CN1C2CCC1CC(Sc1ccccn1)C2` (stereo not drawn) (as salt: hydrochloride) [3-[Endo-(2-Pyridine)thio]-8-methyl-8-azabbicyclo[3.2.1]octane] returned a melting point of 201 to 205 °C.
`CN1CCCC1CCSc1ccncc1` (stereo not drawn) (as salt: hydrochloride) [A = C, B = N, R1, R2, R4, R5 = H, D = absent, E = —S—, G = —] [2-[2-(4-Pyridine)thioethyl]-1-methylpyrrolidine] registered a melting point of 186.5 to 187.5 °C.
